Measured values taken from patent publication US5849259A, “3-,8-substituted deuteroporphyrin derivatives, pharmaceutical agents containing the latter and process for their production” (priority 1992, dated 1998).

How the values were obtained:
[1] = tested on: DMBA-induced breast cancer; experiment: Signal intensity change in tissues of rats with DMBA-induced breast cancer, Bruker Biospec 2.35 Tesla, MSVE; format: in vivo; set-up: key to enhancement, Tumor / enhancement, Liver / enhancement, Kidneys / enhancement, Muscle: signal intensity relative to an internal standard
Method: b) On a Bruker Biospec nuclear spin tomograph (2.35 Tesla), the signal intensity change in various tissues of rats with a DMBA-induced breast cancer was studied after i.v. administration of 0.05 mmol/kg or 0.1 mmol of the compound of example 1c (20 mmol/l, pH 7.2; 37° C. in bidistilled water). The measurements took place with a multi slice variable echo sequence (MSVE). Imaging parameters: TR: 400 ms, TE: 25 ms, layer thickness: 4 mm, number of averages: 4/slice, matrix 256^2.
After a preliminary image, 0.05 mmol/kg or 0.1 mmol/kg of the substance was administered and the signal intensity change (relative to an internal standard) was studied.
The ^1 H-NMR images of the DMBA-induced breast cancer after administration of 0.1 mmol/kg i.v. after 5 minutes or 3 or 24 hours p.i. are reproduced in FIG. 1.

[2] = tested on: HT29 and WiDr colon cancer; experiment: Signal intensity change in tissues of tumor-bearing (HT29 and WiDr colon cancer) nude mice, example 1c, 0.5 mmol/kg; format: in vivo, nude mice (Balb/c nu/nu); conditions: 0.5 mmol/kg i.v.
Method: d) On a Bruker Biospec nuclear spin tomograph (2.35 Tesla), the signal intensity change in various tissues of tumor-bearing (HT29 and WiDr colon cancer) nude mice (Balb/c nu/nu) was studied after i.v. administration of 0.5 mmol/kg of the compound of example 1c (10 mmol/l, pH 7.2; 37° C. in bidistilled water). The measurement takes place with a multi slice single echo sequence (MSSE). Imaging parameters: TR: 400 ms, TE: 30 ms, layer thickness: 4 mm, number of averages: 4/slice, matrix 256^2. After a preliminary image, 0.5 mmol/kg of the substance was administered and the signal intensity change studied up to 180 minutes p.i.

[3] = Tissue concentrations by ICP-AES 2 hours after 0.1 mmol/kg i.v. in nude mice with implanted carcinomas (HT29, WiDr, MATLu); format: in vivo, nude mice (Balb/c nu/nu)
Method: f) 9 nude mice (Balb/c nu/nu) with subcutaneously implanted carcinomas (HT29, WiDr and MATLu) were each administered by i.v. 0.1 mmol/kg of the deuteroporphyrin derivative of example 1c (10 mmol/L dissolved in bidistilled water, pH 7.2, 37° C.). After 2 hours, the animals were killed and dissected. The tissue concentrations were determined after corresponding working-up (HNO3 conc.) by ICP-AES and calculated for % of the administered dose per gram of tissue net weight. Moreover, tissue relaxation times T1 and T2 were determined (Bruker minispec pc 120). To determine the blank readings, control animals were correspondingly studied without KM-administration.

N,N'-Bis[9-carboxylato-2,5,8-tris(carboxylatomethyl)-2,5,8-triazanonyl-carbamoyl]-mesoporphyrin-IX-13,17-diamide, digadolinium complex, disodium salt [Example 1c]
signal intensity change, kidneys ([1]; 0.05 mmol/kg i.v.): stronger signal intensity change | signal intensity change, muscle ([1]; 0.05 or 0.1 mmol/kg i.v., up to 24 hours p.i.): only a slight change | enhancement, Kidneys ([1]; 1 min, 0.1 mmol/kg i.v.): 1.16 | enhancement, Liver ([1]; 1 min, 0.1 mmol/kg i.v.): 1.55 | enhancement, Muscle ([1]; 1 min, 0.1 mmol/kg i.v.): 1.46 | enhancement, Tumor ([1]; 1 min, 0.1 mmol/kg i.v.): 2.48 | enhancement, Kidneys ([1]; 5 min, 0.05 mmol/kg i.v.): 2.57 | enhancement, Liver ([1]; 5 min, 0.05 mmol/kg i.v.): 1.48 | enhancement, Muscle ([1]; 5 min, 0.05 mmol/kg i.v.): 1.34 | enhancement, Tumor ([1]; 5 min, 0.05 mmol/kg i.v.): 1.88 | signal intensity change, liver tissue and tumors ([1]; 5 minutes p.i., 0.05 or 0.1 mmol/kg i.v.): marked signal intensity increase | enhancement, Kidneys ([1]; 15 min, 0.05 mmol/kg i.v.): 2.81 | enhancement, Liver ([1]; 15 min, 0.05 mmol/kg i.v.): 1.29 | enhancement, Muscle ([1]; 15 min, 0.05 mmol/kg i.v.): 1.26 | enhancement, Tumor ([1]; 15 min, 0.05 mmol/kg i.v.): 1.97 | enhancement, Kidneys ([1]; 15 min, 0.1 mmol/kg i.v.): 2.36 | enhancement, Liver ([1]; 15 min, 0.1 mmol/kg i.v.): 1.61 | enhancement, Muscle ([1]; 15 min, 0.1 mmol/kg i.v.): 1.30 | enhancement, Tumor ([1]; 15 min, 0.1 mmol/kg i.v.): 2.40 | enhancement, Kidneys ([1]; 26 min, 0.1 mmol/kg i.v.): 2.33 | enhancement, Liver ([1]; 26 min, 0.1 mmol/kg i.v.): 1.45 | enhancement, Muscle ([1]; 26 min, 0.1 mmol/kg i.v.): 1.37 | enhancement, Tumor ([1]; 26 min, 0.1 mmol/kg i.v.): 2.41 | enhancement, Kidneys ([1]; 30 min, 0.05 mmol/kg i.v.): 2.94 | enhancement, Liver ([1]; 30 min, 0.05 mmol/kg i.v.): 1.42 | enhancement, Muscle ([1]; 30 min, 0.05 mmol/kg i.v.): 1.22 | enhancement, Tumor ([1]; 30 min, 0.05 mmol/kg i.v.): 1.71 | enhancement, Kidneys ([1]; 40 min, 0.1 mmol/kg i.v.): 2.38 | enhancement, Liver ([1]; 40 min, 0.1 mmol/kg i.v.): 1.51 | enhancement, Muscle ([1]; 40 min, 0.1 mmol/kg i.v.): 1.23 | enhancement, Tumor ([1]; 40 min, 0.1 mmol/kg i.v.): 2.34 | enhancement, Kidneys ([1]; 45 min, 0.05 mmol/kg i.v.): 2.84 | enhancement, Liver ([1]; 45 min, 0.05 mmol/kg i.v.): 1.49 | enhancement, Muscle ([1]; 45 min, 0.05 mmol/kg i.v.): 1.12 | enhancement, Tumor ([1]; 45 min, 0.05 mmol/kg i.v.): 1.71 | enhancement, Kidneys ([1]; 60 min, 0.05 mmol/kg i.v.): 2.53 | enhancement, Liver ([1]; 60 min, 0.05 mmol/kg i.v.): 1.52 | enhancement, Muscle ([1]; 60 min, 0.05 mmol/kg i.v.): 1.10 | enhancement, Tumor ([1]; 60 min, 0.05 mmol/kg i.v.): 1.50 | enhancement, Kidneys ([1]; 60 min, 0.1 mmol/kg i.v.): 1.86 | enhancement, Liver ([1]; 60 min, 0.1 mmol/kg i.v.): 1.36 | enhancement, Muscle ([1]; 60 min, 0.1 mmol/kg i.v.): 1.23 | enhancement, Tumor ([1]; 60 min, 0.1 mmol/kg i.v.): 2.34 | enhancement, Kidneys ([1]; 71 min, 0.1 mmol/kg i.v.): 1.66 | enhancement, Liver ([1]; 71 min, 0.1 mmol/kg i.v.): 1.62 | enhancement, Muscle ([1]; 71 min, 0.1 mmol/kg i.v.): 1.17 | enhancement, Tumor ([1]; 71 min, 0.1 mmol/kg i.v.): 2.36 | enhancement, Kidneys ([1]; 75 min, 0.05 mmol/kg i.v.): 2.47 | enhancement, Liver ([1]; 75 min, 0.05 mmol/kg i.v.): 1.50 | enhancement, Muscle ([1]; 75 min, 0.05 mmol/kg i.v.): 1.04 | enhancement, Tumor ([1]; 75 min, 0.05 mmol/kg i.v.): 1.71 | enhancement, Kidneys ([1]; 85 min, 0.1 mmol/kg i.v.): 1.64 | enhancement, Liver ([1]; 85 min, 0.1 mmol/kg i.v.): 1.48 | enhancement, Muscle ([1]; 85 min, 0.1 mmol/kg i.v.): 1.32 | enhancement, Tumor ([1]; 85 min, 0.1 mmol/kg i.v.): 2.39 | enhancement, Kidneys ([1]; 90 min, 0.05 mmol/kg i.v.): 2.15 | enhancement, Liver ([1]; 90 min, 0.05 mmol/kg i.v.): 1.53 | enhancement, Muscle ([1]; 90 min, 0.05 mmol/kg i.v.): 1.11 | enhancement, Tumor ([1]; 90 min, 0.05 mmol/kg i.v.): 1.62 | enhancement, Kidneys ([1]; 105 min, 0.05 mmol/kg i.v.): 2.63 | enhancement, Liver ([1]; 105 min, 0.05 mmol/kg i.v.): 1.63 | enhancement, Muscle ([1]; 105 min, 0.05 mmol/kg i.v.): 1.07 | enhancement, Tumor ([1]; 105 min, 0.05 mmol/kg i.v.): 1.75 | enhancement, Kidneys ([1]; 115 min, 0.1 mmol/kg i.v.): 2.43 | enhancement, Liver ([1]; 115 min, 0.1 mmol/kg i.v.): 1.62 | enhancement, Muscle ([1]; 115 min, 0.1 mmol/kg i.v.): 1.23 | enhancement, Tumor ([1]; 115 min, 0.1 mmol/kg i.v.): 2.38 | enhancement, Kidneys ([1]; 150 min, 0.1 mmol/kg i.v.): 2.27 | enhancement, Liver ([1]; 150 min, 0.1 mmol/kg i.v.): 1.48 | enhancement, Muscle ([1]; 150 min, 0.1 mmol/kg i.v.): 1.17 | enhancement, Tumor ([1]; 150 min, 0.1 mmol/kg i.v.): 2.31 | enhancement, Kidneys ([1]; 160 min, 0.05 mmol/kg i.v.): 2.38 | enhancement, Liver ([1]; 160 min, 0.05 mmol/kg i.v.): 1.47 | enhancement, Muscle ([1]; 160 min, 0.05 mmol/kg i.v.): 1.07 | enhancement, Tumor ([1]; 160 min, 0.05 mmol/kg i.v.): 1.69 | enhancement, Kidneys ([1]; 180 min, 0.05 mmol/kg i.v.): 2.54 | enhancement, Liver ([1]; 180 min, 0.05 mmol/kg i.v.): 1.57 | enhancement, Muscle ([1]; 180 min, 0.05 mmol/kg i.v.): 1.02 | enhancement, Tumor ([1]; 180 min, 0.05 mmol/kg i.v.): 1.67 | enhancement, Kidneys ([1]; 180 min, 0.1 mmol/kg i.v.): 2.18 | enhancement, Liver ([1]; 180 min, 0.1 mmol/kg i.v.): 1.59 | enhancement, Muscle ([1]; 180 min, 0.1 mmol/kg i.v.): 1.22 | enhancement, Tumor ([1]; 180 min, 0.1 mmol/kg i.v.): 2.38 | enhancement, Kidneys ([1]; 24 hours, 0.05 mmol/kg i.v.): 1.17 | enhancement, Liver ([1]; 24 hours, 0.05 mmol/kg i.v.): 0.93 | enhancement, Muscle ([1]; 24 hours, 0.05 mmol/kg i.v.): 1.07 | enhancement, Tumor ([1]; 24 hours, 0.05 mmol/kg i.v.): 1.31 | enhancement, Kidneys ([1]; 24 hours, 0.1 mmol/kg i.v.): 0.94 | enhancement, Liver ([1]; 24 hours, 0.1 mmol/kg i.v.): 1.33 | enhancement, Muscle ([1]; 24 hours, 0.1 mmol/kg i.v.): 1.15 | enhancement, Tumor ([1]; 24 hours, 0.1 mmol/kg i.v.): 2.02 | signal intensity change, liver tissue and both tumors ([2]; 5 minutes p.i.): marked signal intensity increase | signal intensity change, muscle ([2]; reference tissue): smaller signal increase | tissue concentration in prostate cancer (MATLu) versus colon cancers ([3]; 2 hours, 0.1 mmol/kg i.v.): greater than in the colon cancers | tissue concentration, kidneys ([3]; HT29 mice, 2 hours): 6.23 ± 1.80 % of the administered dose per gram of tissue net weight | tissue concentration, kidneys ([3]; MATLu mice, 2 hours): 2.73 ± 0.33 % of the administered dose per gram of tissue net weight | tissue concentration, kidneys ([3]; WiDr mice, 2 hours): 4.23 ± 0.19 % of the administered dose per gram of tissue net weight | tissue concentration, HT29 tumor ([3]; mouse, in vivo, iv, 2 h): 1.00 ± 0.27 % of the administered dose per gram of tissue net weight | tissue concentration, MATLu tumor ([3]; mouse, in vivo, iv, 2 h): 1.92 ± 2.09 % of the administered dose per gram of tissue net weight | tissue concentration, WiDr tumor ([3]; mouse, in vivo, iv, 2 h): 0.83 ± 0.05 % of the administered dose per gram of tissue net weight
